# Assay results from patent US20200369629A1, “BENZAMIDE COMPOUNDS AND THEIR USE AS HERBICIDES” (BASF SE, priority 2017, published 2020).
# Legend:
# Assay type in all cases: in vivo
# [1] = test system: ECHCG (Echinocloa crus-galli); experiment: Greenhouse post-emergence test, test series 1, ECHCG; conditions: Echinochloa crus-galli, application rate 62.5 g/ha, scale 0 to 100 (100 = complete destruction, 0 = no damage)
# From the text: (§1) The seeds of the test plants were sown separately for each species. For the pre-emergence treatment, the active ingredients, which had been suspended or emulsified in water, were applied directly after sowing by means of finely distributing nozzles. The containers were irrigated gently to promote germination and growth and subsequently covered with transparent plastic hoods until the plants had rooted. This cover caused uniform germination of the test plants, unless this had been impaired by the active ingredients. For the post-emergence treatment, the test plants were first grown to a height of 3 to 15 cm, depending on the plant habit, and only then treated with the active ingredients which had been suspended or emulsified in water. For this purpose, the test plants were either sown directly and grown in the same containers, or they were first grown separately as seedlings and transplanted into the test containers a few days prior to treatment. Depending on the species, the plants were kept at 10-25° C. or 20-25° C., respectively. The test period extended over 2 to 4 weeks. During this time, the plants were tended, and their response to the individual treatments was evaluated. Evaluation was carried out using a scale from 0 to 100. 100 means no emergence of the plants, or complete destruction of at least the aerial moieties, and 0 means no damage, or normal course of growth. A good herbicidal activity is given at values of at least 70 and a very good herbicidal activity is given at values of at least 85. Test Series 1: At an application rate of 62.5 g/ha the following compounds were tested in post-emergence tests against: ECHCG (Echinocloa crus-galli)
# [2] = test system: ALOMY (Alopecurus myosuroiedes); experiment: Greenhouse pre-emergence test, test series 2, ALOMY; conditions: application rate 125 g/ha, scale 0 to 100 (100 = no emergence, 0 = no damage)
# From the text: as §1, with “Series 2:” for “Series 1:”, “of 125” for “of 62.5”, “in pre-emergence” for “in post-emergence”, “tests against ALOMY (Alopecurus myosuroiedes)” for “tests against: ECHCG (Echinocloa crus-galli)”
# SETFA (Setaria faberi) = experiment: Greenhouse pre-emergence test, test series 2, SETFA; conditions: application rate 125 g/ha, scale 0 to 100 (100 = no emergence, 0 = no damage)
# From the text: as §1, with “Series 2:” for “Series 1:”, “of 125” for “of 62.5”, “in pre-emergence” for “in post-emergence”, “tests against SETFA (Setaria faberi)” for “tests against: ECHCG (Echinocloa crus-galli)”
SMILES,pest or weed control at 62.5 g/ha [1],pest or weed control at 125 g/ha [2],pest or weed control at 125 g/ha (SETFA (Setaria faberi))
"Cc1c(NC(=O)N(C)CC(F)(F)F)c(Br)cc(F)c1C(=O)Nc1nnnn1C [Example 1, 4-bromo-6-fluoro-2-methyl-N-(1-methyltetrazol-5-yl)-3-[[methyl(2,2,2-trifluoroethyl)carbamoyl]amino]benzamide]",> 85%,> 85%,> 85%
"CCN(CC(F)(F)F)C(=O)Nc1c(Br)cc(F)c(C(=O)Nc2nnnn2C)c1C [Example 2, 4-bromo-6-fluoro-2-methyl-N-(1-methyltetrazol-5-yl)-3-[[ethyl(2,2,2-trifluoroethyl)carbamoyl]amino]benzamide]",> 85%,> 85%,> 85%
Cc1c(NC(=O)N(CC(F)(F)F)CC(F)(F)F)c(Br)cc(F)c1C(=O)Nc1nnnn1C [Example 3],> 85%,> 85%,> 85%
Cc1c(NC(=O)N(CC(F)(F)F)C2CC2)c(Br)cc(F)c1C(=O)Nc1nnnn1C [Example 6],> 85%,> 85%,> 85%
Cn1nnnc1NC(=O)c1c(F)cc(Cl)c(NC(=O)N(CC(F)(F)F)C2CC2)c1Cl [Example 7],> 85%,> 85%,> 85%
CCN(CC(F)(F)F)C(=O)Nc1c(Cl)cc(F)c(C(=O)Nc2nnnn2C)c1Cl [Example 8],> 85%,> 85%,> 85%
"CN(CC(F)(F)F)C(=O)Nc1c(Cl)cc(F)c(C(=O)Nc2nnnn2C)c1Cl [Example 9, 2,4-dichloro-6-fluoro-N-(1-methyltetrazol-5-yl)-3-[[methyl(2,2,2-trifluoroethyl)carbamoyl]amino]benzamide]",> 85%,> 85%,
CN(CC(F)(F)F)C(=O)Nc1c(C(F)(F)F)cc(F)c(C(=O)Nc2nnnn2C)c1Cl [Example 10],> 85%,> 85%,> 85%
Cc1c(NC(=O)N(C)CC(F)(F)F)c(Cl)cc(F)c1C(=O)Nc1nnnn1C [Example 12],> 85%,> 85%,
Cc1c(NC(=O)N(CC(F)(F)F)C(C)C)c(Cl)cc(F)c1C(=O)Nc1nnnn1C [Example 13],> 85%,> 85%,> 85%
CC(C)N(CC(F)(F)F)C(=O)Nc1c(C(F)(F)F)cc(F)c(C(=O)Nc2nnnn2C)c1Cl [Example 14],> 85%,> 85%,> 85%
CCN(CC(F)(F)F)C(=O)Nc1c(Cl)cc(F)c(C(=O)Nc2nnnn2C)c1C [Example 18],> 85%,> 85%,> 85%
Cc1c(NC(=O)N(CC(F)(F)F)CC(F)(F)F)c(Cl)cc(F)c1C(=O)Nc1nnnn1C [Example 19],> 85%,> 85%,
CC(C)N(CC(F)(F)F)C(=O)Nc1c(Cl)cc(F)c(C(=O)Nc2nnnn2C)c1Cl [Example 20],> 85%,> 85%,
Cc1c(NC(=O)N(CC(F)(F)F)C2CC2)c(Cl)cc(F)c1C(=O)Nc1nnnn1C [Example 21],> 85%,> 85%,> 85%
Cn1nnnc1NC(=O)c1c(F)cc(C(F)(F)F)c(NC(=O)N(CC(F)(F)F)CC(F)(F)F)c1Cl [Example 22],> 85%,> 85%,> 85%
